Values joined by “and” are separate entries in the source; they are usually repeats but may differ in a detail not shown here. Identical values can stand only once. Toxic doses and inconclusive results are not listed.
System: CD2F1 mice, L1210 leukemia ip, survival T/C
Assay: NCI In Vivo Anticancer Drug Screen. Data for tumor model L1210 Leukemia (intraperitoneal) in CD2F1 (CDF1) mice
Details: higher = longer survival
Outline: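 In this screen, transplantable tumors were grown in mice given either the compound or its vehicle. Results were expressed as the treated measurement relative to the control measurement.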

[1] = endpoint: mean survival time, dose: 100.0 mg/kg/injection, schedule: Q01DX001 (ip), vehicle: saline with Tween-80
[2] = endpoint: mean survival time, dose: 100.0 mg/kg/injection, schedule: Q04DX002 (ip), vehicle: saline with Tween-80
[3] = endpoint: mean survival time, dose: 200.0 mg/kg/injection, schedule: Q01DX001 (ip), vehicle: saline with Tween-80
[4] = endpoint: mean survival time, dose: 200.0 mg/kg/injection, schedule: Q04DX002 (ip), vehicle: saline with Tween-80
[5] = endpoint: mean survival time, dose: 400.0 mg/kg/injection, schedule: Q01DX001 (ip), vehicle: saline with Tween-80
[6] = endpoint: mean survival time, dose: 400.0 mg/kg/injection, schedule: Q04DX002 (ip), vehicle: saline with Tween-80
[7] = endpoint: mean survival time, dose: 100.0 mg/kg/injection, schedule: Q04DX003 (ip), vehicle: saline with Tween-80
[8] = endpoint: mean survival time, dose: 200.0 mg/kg/injection, schedule: Q04DX003 (ip), vehicle: saline with Tween-80
[9] = endpoint: mean survival time, dose: 400.0 mg/kg/injection, schedule: Q04DX003 (ip), vehicle: saline with Tween-80
[10] = endpoint: mean survival time, dose: 100.0 mg/kg/injection, schedule: Q01DX001 (ip), vehicle: saline
[11] = endpoint: mean survival time, dose: 200.0 mg/kg/injection, schedule: Q01DX001 (ip), vehicle: saline
[12] = endpoint: mean survival time, dose: 400.0 mg/kg/injection, schedule: Q01DX001 (ip), vehicle: saline
[13] = endpoint: mean survival time, dose: 100.0 mg/kg/injection, schedule: Q04DX003 (ip), vehicle: saline
[14] = endpoint: mean survival time, dose: 200.0 mg/kg/injection, schedule: Q04DX003 (ip), vehicle: saline
[15] = endpoint: mean survival time, dose: 400.0 mg/kg/injection, schedule: Q04DX003 (ip), vehicle: saline

## C#CC(CC)OC(=O)c1cc([N+](=O)[O-])cc([N+](=O)[O-])c1 (configuration not stated)
[1]
  T/C: 87 % of control
[2]
  T/C: 93 % of control
[3]
  T/C: 94 % of control
[4]
  T/C: 93 % of control
[5]
  T/C: 90 % of control
[6]
  T/C: 93 % of control

## O=[N+]([O-])c1ccc2c(c1)-c1ccccc1/C2=N\O
endpoint: mean survival time, dose: 50.0 mg/kg/injection, schedule: Q01DX001 (ip), vehicle: carboxymethylcellulose (CMC)
  T/C: 98 % of control
endpoint: mean survival time, dose: 100.0 mg/kg/injection, schedule: Q01DX001 (ip), vehicle: carboxymethylcellulose (CMC)
  T/C: 104 % of control
endpoint: mean survival time, dose: 200.0 mg/kg/injection, schedule: Q01DX001 (ip), vehicle: carboxymethylcellulose (CMC)
  T/C: 111 % of control
endpoint: mean survival time, dose: 400.0 mg/kg/injection, schedule: Q01DX001 (ip), vehicle: carboxymethylcellulose (CMC)
  T/C: 104 % of control

## CC(C)C(C)OC(=O)Nc1cccc(O)c1 (configuration not stated)
[7]
  T/C: 99 % of control
[8]
  T/C: 97 % of control
[9]
  T/C: 97 % of control

## N#CCc1c(Cl)c(Cl)c(Cl)c(Cl)c1Cl
[7]
  T/C: 103 % of control
[8]
  T/C: 103 % of control
[9]
  T/C: 102 % of control

## O=C(CCCN1CCC(O)(c2ccc(C(F)(F)F)cc2)CC1)c1ccc(N2CCC(O)CC2)cc1
endpoint: mean survival time, dose: 12.5 mg/kg/injection, schedule: Q04DX002 (ip), vehicle: saline with Tween-80
  T/C: 103 % of control
endpoint: mean survival time, dose: 25.0 mg/kg/injection, schedule: Q04DX002 (ip), vehicle: saline with Tween-80
  T/C: 103 % of control
endpoint: mean survival time, dose: 50.0 mg/kg/injection, schedule: Q04DX002 (ip), vehicle: saline with Tween-80
  T/C: 103 % of control

## Nc1cc(Cl)c(I)cc1Cl
[10]
  T/C: 102 % of control
[11]
  T/C: 102 % of control
[12]
  T/C: 101 % of control

## [Cl][Pt+2][Cl].[NH-]CC1([NH-])CCCCC1
endpoint: mean survival time, dose: 0.19 mg/kg/injection, schedule: Q04DX003 (ip), vehicle: saline with Tween-80
  T/C: 107 % of control
endpoint: mean survival time, dose: 0.39 mg/kg/injection, schedule: Q04DX003 (ip), vehicle: saline with Tween-80
  T/C: 107 % of control
endpoint: mean survival time, dose: 0.79 mg/kg/injection, schedule: Q04DX003 (ip), vehicle: saline with Tween-80
  T/C: 113 % of control
endpoint: mean survival time, dose: 1.56 mg/kg/injection, schedule: Q04DX003 (ip), vehicle: saline with Tween-80
  T/C: 114 % of control
endpoint: mean survival time, dose: 3.13 mg/kg/injection, schedule: Q04DX003 (ip), vehicle: saline
  T/C: 202 % of control
endpoint: mean survival time, dose: 6.25 mg/kg/injection, schedule: Q04DX003 (ip), vehicle: saline
  T/C: 184 % of control
endpoint: mean survival time, dose: 12.5 mg/kg/injection, schedule: Q04DX003 (ip), vehicle: saline with Tween-80
  T/C: 244 % of control

## COc1ccccc1NC(=O)Nc1cc([N+](=O)[O-])ccc1OC
[2]
  T/C: 96 % of control
[4]
  T/C: 93 % of control
[6]
  T/C: 86 % of control

## CCOc1ccc2cc(S(=O)(=O)O)ccc2c1N
[13]
  T/C: 93 % of control
[14]
  T/C: 95 % of control
[15]
  T/C: 103 % of control

## CN(C)N=Nc1ccc(C(=O)O)cc1
endpoint: mean survival time, dose: 25.0 mg/kg/injection, schedule: Q01DX009 (ip), vehicle: saline
  T/C: 112 % of control
endpoint: mean survival time, dose: 25.0 mg/kg/injection, schedule: Q04DX003 (ip), vehicle: saline
  T/C: 96 % of control
endpoint: mean survival time, dose: 45.0 mg/kg/injection, schedule: Q01DX009 (ip), vehicle: saline
  T/C: 124 % of control
endpoint: mean survival time, dose: 50.0 mg/kg/injection, schedule: Q01DX009 (ip), vehicle: saline
  T/C: 124 % of control
endpoint: mean survival time, dose: 50.0 mg/kg/injection, schedule: Q04DX003 (ip), vehicle: saline
  T/C: 102 % of control
endpoint: mean survival time, dose: 65.0 mg/kg/injection, schedule: Q01DX009 (ip), vehicle: saline
  T/C: 154 % of control
endpoint: mean survival time, dose: 100.0 mg/kg/injection, schedule: Q01DX009 (ip), vehicle: saline
  T/C: 172 % of control
[13]
  T/C: 109 % of control
endpoint: mean survival time, dose: 200.0 mg/kg/injection, schedule: Q01DX009 (ip), vehicle: saline
  T/C: 90 % of control
[14]
  T/C: 123 % of control
[15]
  T/C: 103 % of control
endpoint: median survival time, dose: 25.0 mg/kg/injection, schedule: Q01DX005 (ip), vehicle: saline
  T/C: 122 % of control
endpoint: median survival time, dose: 36.0 mg/kg/injection, schedule: Q01DX005 (ip), vehicle: saline
  T/C: 116 % of control
endpoint: median survival time, dose: 50.0 mg/kg/injection, schedule: Q01DX005 (ip), vehicle: saline
  T/C: 124 % of control
endpoint: median survival time, dose: 100.0 mg/kg/injection, schedule: Q01DX005 (ip), vehicle: saline
  T/C: 151 % of control and 170 % of control
endpoint: median survival time, dose: 166.6 mg/kg/injection, schedule: Q01DX005 (ip), vehicle: saline
  T/C: 179 % of control
endpoint: median survival time, dose: 200.0 mg/kg/injection, schedule: Q01DX005 (ip), vehicle: saline
  T/C: 112 % of control

## OC(CI)C(O)C(O)C(O)CI (configuration not stated)
endpoint: mean survival time, dose: 25.0 mg/kg/injection, schedule: Q01DX009 (oral), vehicle: other
  T/C: 106 % of control
endpoint: mean survival time, dose: 50.0 mg/kg/injection, schedule: Q01DX009 (oral), vehicle: other
  T/C: 106 % of control
endpoint: mean survival time, dose: 100.0 mg/kg/injection, schedule: Q01DX009 (oral), vehicle: other
  T/C: 95 % of control
endpoint: mean survival time, dose: 200.0 mg/kg/injection, schedule: Q01DX009 (oral), vehicle: other
  T/C: 107 % of control
endpoint: mean survival time, dose: 400.0 mg/kg/injection, schedule: Q01DX009 (oral), vehicle: other
  T/C: 107 % of control
endpoint: mean survival time, dose: 800.0 mg/kg/injection, schedule: Q01DX009 (oral), vehicle: other
  T/C: 124 % of control

## CCC1CC2CN(CCc3c([nH]c4ccccc34)C(C(=O)OC)(c3cc4c(cc3OC)N(C)C3C(O)(C(=O)OC)C(OC(C)=O)C5(CC)C=CCN6CCC43C65)C2)C1 (configuration not stated)
endpoint: median survival time, dose: 0.06 mg/kg/injection, schedule: Q01DX009 (ip), vehicle: saline
  T/C: 102 % of control
endpoint: median survival time, dose: 0.13 mg/kg/injection, schedule: Q01DX009 (ip), vehicle: saline
  T/C: 103 % of control
endpoint: median survival time, dose: 0.25 mg/kg/injection, schedule: Q01DX009 (ip), vehicle: saline
  T/C: 105 % of control
endpoint: median survival time, dose: 0.5 mg/kg/injection, schedule: Q01DX009 (ip), vehicle: saline
  T/C: 116 % of control
endpoint: median survival time, dose: 0.5 mg/kg/injection, schedule: Q01DX009 (ip), vehicle: water
  T/C: 113 % of control
endpoint: median survival time, dose: 1.0 mg/kg/injection, schedule: Q01DX009 (ip), vehicle: saline
  T/C: 120 % of control
endpoint: median survival time, dose: 1.0 mg/kg/injection, schedule: Q01DX009 (ip), vehicle: water
  T/C: 116 % of control
endpoint: median survival time, dose: 2.0 mg/kg/injection, schedule: Q01DX009 (ip), vehicle: water
  T/C: 104 % of control

## CCOC(=O)CCSCCC(=O)OCC
[7]
  T/C: 100 % of control
[8]
  T/C: 96 % of control
[9]
  T/C: 98 % of control

## CCOC(=O)CCCc1ccccc1
endpoint: mean survival time, dose: 100.0 mg/kg/injection, schedule: Q01DX009 (ip), vehicle: saline with Tween-80
  T/C: 93 % of control
endpoint: mean survival time, dose: 200.0 mg/kg/injection, schedule: Q01DX009 (ip), vehicle: saline with Tween-80
  T/C: 95 % of control
endpoint: mean survival time, dose: 400.0 mg/kg/injection, schedule: Q01DX009 (ip), vehicle: saline with Tween-80
  T/C: 102 % of control

## Cc1cc(N(CCOS(C)(=O)=O)CCOS(C)(=O)=O)ccc1C=Nc1ccc(C(=O)O)c(O)c1
endpoint: mean survival time, dose: 4.0 mg/kg/injection, schedule: Q01DX009 (ip), vehicle: saline with Tween-80
  T/C: 118 % of control
endpoint: mean survival time, dose: 6.0 mg/kg/injection, schedule: Q01DX009 (ip), vehicle: saline with Tween-80
  T/C: 111 % of control
endpoint: mean survival time, dose: 12.5 mg/kg/injection, schedule: Q01DX009 (ip), vehicle: saline with Tween-80
  T/C: 123 % of control

## CON(C)CCOC(=O)c1ccc([N+](=O)[O-])cc1
[1]
  T/C: 100 % of control
[3]
  T/C: 107 % of control
[5]
  T/C: 105 % of control

## O=C(O)C1(O)C[C@@H](O)C(O)[C@H](O)C1 (some centres not stated)
[10]
  T/C: 102 % of control
[13]
  T/C: 108 % of control
[11]
  T/C: 96 % of control
[14]
  T/C: 98 % of control
[12]
  T/C: 100 % of control
[15]
  T/C: 102 % of control

## O=C([O][Bi]([c]1ccccc1)[c]1ccccc1)c1ccccc1
endpoint: median survival time, dose: 6.25 mg/kg/injection, schedule: Q01DX009 (ip), vehicle: Klucel (hydroxypropylcellulose) (HPC)
  T/C: 97 % of control
endpoint: median survival time, dose: 12.5 mg/kg/injection, schedule: Q01DX009 (ip), vehicle: Klucel (hydroxypropylcellulose) (HPC)
  T/C: 95 % of control
endpoint: median survival time, dose: 25.0 mg/kg/injection, schedule: Q01DX009 (ip), vehicle: Klucel (hydroxypropylcellulose) (HPC)
  T/C: 101 % of control

From PubChem BioAssay AID256 (DTP/NCI, 2004)
